How the values were obtained:
[1] = Toxicity in rat assessed as histological changes in bone marrow at 500 mg/kg/day; format: organism-based; conditions: in vivo
[2] = tested on: UGT; experiment: Metabolic stability assessed as rat UGT-mediated metabolism by measuring half life by phase II UGT conjugation assay; format: ADME
[3] = Cardiotoxicity in dog heart assessed as change in electrocardiographic parameter upto 128 uM of plasma concentration; format: toxicity, Canis lupus familiaris
[4] = Toxicity in rat assessed as histological changes in adrenal gland at 500 mg/kg/day; format: organism-based; conditions: in vivo
[5] = target: Voltage-gated inwardly rectifying potassium channel KCNH2 (Homo sapiens, UniProt Q12809); experiment: Inhibition of hERG; format: toxicity
Chain of Voltage-gated inwardly rectifying potassium channel KCNH2 (Q12809 whole entry): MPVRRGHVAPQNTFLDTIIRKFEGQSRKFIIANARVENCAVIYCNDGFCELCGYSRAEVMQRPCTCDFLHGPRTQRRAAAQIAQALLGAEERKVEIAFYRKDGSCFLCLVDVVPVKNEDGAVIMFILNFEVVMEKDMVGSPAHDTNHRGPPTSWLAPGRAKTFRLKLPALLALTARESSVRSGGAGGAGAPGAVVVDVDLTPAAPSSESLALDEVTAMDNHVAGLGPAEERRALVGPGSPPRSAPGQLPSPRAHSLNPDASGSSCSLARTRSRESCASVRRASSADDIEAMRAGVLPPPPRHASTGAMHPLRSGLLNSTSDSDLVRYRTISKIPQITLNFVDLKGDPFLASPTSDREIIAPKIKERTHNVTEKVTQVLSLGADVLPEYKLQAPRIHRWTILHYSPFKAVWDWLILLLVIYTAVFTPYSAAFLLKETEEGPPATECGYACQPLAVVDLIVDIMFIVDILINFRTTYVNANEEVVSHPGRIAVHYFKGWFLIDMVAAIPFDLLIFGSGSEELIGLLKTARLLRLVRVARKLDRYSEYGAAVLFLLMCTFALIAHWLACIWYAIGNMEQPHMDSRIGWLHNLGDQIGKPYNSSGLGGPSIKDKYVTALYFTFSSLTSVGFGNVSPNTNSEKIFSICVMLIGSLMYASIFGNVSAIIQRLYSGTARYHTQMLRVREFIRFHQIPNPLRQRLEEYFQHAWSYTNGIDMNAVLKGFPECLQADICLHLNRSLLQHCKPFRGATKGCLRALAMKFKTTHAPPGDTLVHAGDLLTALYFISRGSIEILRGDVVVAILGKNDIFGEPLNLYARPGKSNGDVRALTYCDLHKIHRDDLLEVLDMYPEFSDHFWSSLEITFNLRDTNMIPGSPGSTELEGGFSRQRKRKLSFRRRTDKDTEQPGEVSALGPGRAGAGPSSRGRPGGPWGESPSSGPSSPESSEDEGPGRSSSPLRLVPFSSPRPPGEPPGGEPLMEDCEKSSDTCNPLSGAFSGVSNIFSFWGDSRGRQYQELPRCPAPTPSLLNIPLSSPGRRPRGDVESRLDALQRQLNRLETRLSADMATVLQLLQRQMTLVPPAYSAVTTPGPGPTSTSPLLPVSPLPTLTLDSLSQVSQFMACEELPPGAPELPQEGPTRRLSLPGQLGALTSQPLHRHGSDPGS

[6] = tested on: Human immunodeficiency virus 1; experiment: Antiviral activity against recombinant HIV1 NLRep-Rluc harbouring polymorphic AA infected in human MT-2 cells assessed as inhibition of virus growth in presence of fetal bovine serum by measuring luciferase activity after 5 days; format: functional, organism-based; conditions: Human immunodeficiency virus 1, NLRep, MT2, 120 h
[7] = target: Cytochrome P450 2C19 (Homo sapiens, UniProt P33261); experiment: Inhibition of human CYP2C19; format: ADME
Chain of Cytochrome P450 2C19 (P33261 whole entry): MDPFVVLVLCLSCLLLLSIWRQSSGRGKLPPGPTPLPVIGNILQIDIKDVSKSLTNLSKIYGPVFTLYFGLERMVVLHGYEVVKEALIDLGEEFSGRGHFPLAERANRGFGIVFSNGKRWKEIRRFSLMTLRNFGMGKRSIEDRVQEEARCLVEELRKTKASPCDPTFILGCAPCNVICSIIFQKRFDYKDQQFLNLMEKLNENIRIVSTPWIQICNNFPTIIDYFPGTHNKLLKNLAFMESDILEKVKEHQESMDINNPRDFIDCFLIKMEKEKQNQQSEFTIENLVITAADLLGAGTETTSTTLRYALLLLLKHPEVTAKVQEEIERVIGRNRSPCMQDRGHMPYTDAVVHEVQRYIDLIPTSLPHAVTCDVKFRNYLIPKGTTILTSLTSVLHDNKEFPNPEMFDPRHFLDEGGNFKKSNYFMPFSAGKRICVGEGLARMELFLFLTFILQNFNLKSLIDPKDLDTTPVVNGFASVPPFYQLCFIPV

[8] = tested on: CYP; experiment: Half life in dog assessed as CYP mediated metabolism in presence of […] by phase I metabolic oxidation assay; format: ADME, Canis lupus familiaris
[9] = target: Cytochrome P450 3A4 (Homo sapiens, UniProt P08684); experiment: Inhibition of human CYP3A4; format: ADME
Chain of Cytochrome P450 3A4 (P08684 whole entry): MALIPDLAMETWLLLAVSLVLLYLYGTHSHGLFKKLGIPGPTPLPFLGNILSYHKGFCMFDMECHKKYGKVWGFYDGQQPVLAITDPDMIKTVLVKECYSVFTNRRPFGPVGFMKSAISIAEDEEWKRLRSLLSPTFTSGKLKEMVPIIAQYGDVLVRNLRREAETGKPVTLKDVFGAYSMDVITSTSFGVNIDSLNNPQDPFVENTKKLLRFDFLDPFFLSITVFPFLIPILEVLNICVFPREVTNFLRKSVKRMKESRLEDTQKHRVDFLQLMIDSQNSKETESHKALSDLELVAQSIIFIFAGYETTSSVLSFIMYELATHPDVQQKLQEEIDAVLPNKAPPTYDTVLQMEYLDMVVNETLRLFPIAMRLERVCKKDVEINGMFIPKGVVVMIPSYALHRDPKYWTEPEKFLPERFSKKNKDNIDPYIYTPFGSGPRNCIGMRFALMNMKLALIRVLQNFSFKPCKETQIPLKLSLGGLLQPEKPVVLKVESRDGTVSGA

[10] = Permeability of the compound at pH 7.4 by PAMPA assay; format: ADME; conditions: read-out: permeability
[11] = tested on: Human immunodeficiency virus 1; experiment: Antiviral activity against recombinant HIV1 NLRep-Rluc harbouring polymorphic NT infected in human MT-2 cells assessed as inhibition of virus growth in presence of fetal bovine serum by measuring luciferase activity after 5 days; format: functional, organism-based; conditions: Human immunodeficiency virus 1, NLRep, MT2, 120 h
[12] = Oral bioavailability in CD-1 mouse at 5 mg/kg by LC-MS/MS analysis; format: ADME, organism-based; conditions: in vivo
[13] = Cytotoxicity against human MT2 cells assessed as cell viability measured after 4 days by XTT assay; format: toxicity, cell-based; conditions: time 4 day
[14] = Solubility of the compound using amorphous form of sample; format: physicochemical
[15] = AUC in cynomolgus monkey at 2 mg/kg, po by LC-MS/MS analysis; format: ADME, organism-based, Macaca fascicularis; design: dose 2 mg/kg; conditions: in vivo
[16] = target: Cytochrome P450 2C9 (Homo sapiens, UniProt P11712); experiment: Inhibition of human CYP2C9; format: ADME
Chain of Cytochrome P450 2C9 (P11712 whole entry): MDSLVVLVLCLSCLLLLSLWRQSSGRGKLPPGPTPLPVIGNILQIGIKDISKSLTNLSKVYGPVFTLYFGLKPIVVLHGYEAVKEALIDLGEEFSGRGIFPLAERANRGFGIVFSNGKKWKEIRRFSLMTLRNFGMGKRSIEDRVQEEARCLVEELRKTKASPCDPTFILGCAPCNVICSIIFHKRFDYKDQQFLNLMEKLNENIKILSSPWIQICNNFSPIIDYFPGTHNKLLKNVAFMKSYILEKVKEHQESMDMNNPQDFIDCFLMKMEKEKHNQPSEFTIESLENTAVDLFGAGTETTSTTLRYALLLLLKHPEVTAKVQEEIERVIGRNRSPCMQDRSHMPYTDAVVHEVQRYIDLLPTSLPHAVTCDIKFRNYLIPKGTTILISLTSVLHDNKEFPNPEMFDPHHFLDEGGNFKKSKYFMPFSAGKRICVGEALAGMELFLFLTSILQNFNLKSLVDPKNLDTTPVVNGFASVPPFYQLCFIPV

[17] = Oral bioavailability in cynomolgus monkey at 2 mg/kg by LC-MS/MS analysis; format: ADME, organism-based, Macaca fascicularis; conditions: in vivo
[18] = Tmax in Sprague-Dawley rat at 5 mg/kg, po by LC-MS/MS analysis; format: ADME, organism-based; conditions: in vivo
[19] = Elimination half life in Cynomolgus monkey at 1 mg/kg, iv by LC-MS/MS analysis; format: ADME, organism-based, Macaca fascicularis; conditions: in vivo, read-out: beta t1/2 (converted)
[20] = Volume of distribution at steady state in Sprague-Dawley rat at 1 mg/kg, iv by LC-MS/MS analysis; format: ADME, organism-based; conditions: in vivo, read-out: Vdss
[21] = tested on: Human immunodeficiency virus 1; experiment: Antiviral activity against recombinant HIV1 NLRep-Rluc harbouring polymorphic NA infected in human MT-2 cells assessed as inhibition of virus growth in presence of fetal bovine serum by measuring luciferase activity after 5 days; format: functional, organism-based; conditions: Human immunodeficiency virus 1, NLRep, MT2, 120 h
[22] = Toxicity in rat assessed as histological changes in lymph node at 500 mg/kg/day; format: organism-based; conditions: in vivo
[23] = Metabolic stability in human liver microsome assessed half life at 0.5 uM by LC-MS/MS analysis; format: ADME; conditions: liver microsomes
[24] = target: L-type calcium channel (Homo sapiens, UniProt O60840+Q01668+Q13698+Q13936); experiment: Inhibition of calcium channel, Type L (unknown origin) at 10 uM; format: toxicity
[25] = tested on: UGT; experiment: Metabolic stability assessed as dog UGT-mediated metabolism by measuring half life by phase II UGT conjugation assay; format: ADME, Canis lupus familiaris
[26] = Elimination half life in CD-1 mouse at 1 mg/kg, iv by LC-MS/MS analysis; format: ADME, organism-based; conditions: in vivo, read-out: beta t1/2 (converted)
[27] = Cmax in Sprague-Dawley rat at 5 mg/kg, po by LC-MS/MS analysis; format: ADME, organism-based; design: route oral, dose 5 mg/kg; conditions: in vivo
[28] = Toxicity in rat at 500 mg/kg/day for one week; format: organism-based; conditions: in vivo
[29] = Clearance in CD-1 mouse at 1 mg/kg, iv by LC-MS/MS analysis; format: ADME, organism-based; conditions: in vivo
[30] = Elimination half life in Sprague-Dawley rat at 1 mg/kg, iv by LC-MS/MS analysis; format: ADME, organism-based; conditions: in vivo, read-out: beta t1/2 (converted)
[31] = Tmax in CD-1 mouse at 5 mg/kg, po by LC-MS/MS analysis; format: ADME, organism-based; conditions: in vivo
[32] = Toxicity in dog assessed as vomiting at >=100 mg/kg, po administered as single dose; format: organism-based, Canis lupus familiaris; conditions: in vivo
[33] = Plasma protein binding in monkey; format: ADME, cell-free, Macaca mulatta; conditions: rhesus monkey, read-out: PPB (converted)
[34] = Oral bioavailability in Sprague-Dawley rat at 5 mg/kg by LC-MS/MS analysis; format: ADME, organism-based; conditions: in vivo
[35] = tested on: CYP; experiment: Half life in monkey assessed as CYP mediated metabolism in presence of […] by phase I metabolic oxidation assay; format: ADME, Macaca mulatta; conditions: rhesus monkey
[36] = Volume of distribution at steady state in Cynomolgus monkey at 1 mg/kg, iv by LC-MS/MS analysis; format: ADME, organism-based, Macaca fascicularis; conditions: in vivo, read-out: Vdss
[37] = tested on: CYP; experiment: Half life in rat assessed as CYP mediated metabolism in presence of […] by phase I metabolic oxidation assay; format: ADME
[38] = Toxicity in rat assessed as lipidosis at 500 mg/kg/day; format: organism-based; conditions: in vivo
[39] = Toxicity in rat assessed as distended stomach at 500 mg/kg/day; format: organism-based; conditions: in vivo
[40] = tested on: Human immunodeficiency virus 1; experiment: Antiviral activity against recombinant HIV1 NLRep-Rluc harbouring polymorphic TA infected in human MT-2 cells assessed as inhibition of virus growth in presence of fetal bovine serum by measuring luciferase activity after 5 days; format: functional, organism-based; conditions: Human immunodeficiency virus 1, NLRep, MT2, 120 h
[41] = tested on: UGT; experiment: Metabolic stability assessed as monkey UGT-mediated metabolism by measuring half life by phase II UGT conjugation assay; format: ADME, Macaca mulatta; conditions: rhesus monkey
[42] = Permeability of the compound at pH 5.5 by PAMPA assay; format: ADME; conditions: read-out: permeability
[43] = AUC in CD-1 mouse at 5 mg/kg, po by LC-MS/MS analysis; format: ADME, organism-based; design: dose 5 mg/kg; conditions: in vivo
[44] = AUC in Sprague-Dawley rat at 5 mg/kg, po by LC-MS/MS analysis; format: ADME, organism-based; design: dose 5 mg/kg; conditions: in vivo
[45] = Elimination half life in Beagle dog at 1 mg/kg, iv by LC-MS/MS analysis; format: ADME, organism-based, Canis lupus familiaris; conditions: in vivo, read-out: beta t1/2 (converted)
[46] = Stability in pH 4 for 2 weeks at 50 degC; format: physicochemical; conditions: buffer, pH 4, 336 h
[47] = tested on: Salmonella typhimurium; experiment: Mutagenicity in Salmonella Typhimurium using Aroclor 1254 induced rat liver S9 fraction by […] assay; format: toxicity, organism-based; conditions: salmonella enterica subsp. enterica serovar typhimurium
[48] = Stability in pH 1 for 2 days at 50 degC; format: physicochemical; conditions: buffer, pH 1, 48 h; time 2 day
[49] = Plasma protein binding in rat; format: ADME, cell-free; conditions: read-out: PPB (converted)
[50] = Clearance in Beagle dog at 1 mg/kg, iv by LC-MS/MS analysis; format: ADME, organism-based, Canis lupus familiaris; conditions: in vivo
[51] = Cardiotoxicity in dog heart assessed as decrease in blood pressure at 300 mg/kg; format: toxicity, organism-based, Canis lupus familiaris; design: scale not given: the % may be the effect or the level left; conditions: in vivo
[52] = Metabolic stability in rat liver microsome assessed half life at 0.5 uM by LC-MS/MS analysis; format: ADME; conditions: liver microsomes
[53] = Toxicity in rat assessed as histological changes in stomach at 500 mg/kg/day; format: organism-based; conditions: in vivo

For `Cc1nc(C)c([C@H](OC(C)(C)C)C(=O)O)c(N2CCC(C)(C)CC2)c1-c1ccc(OCCc2ccc(F)cc2)cc1`, the Activity [1] was “Toxic”, the half-life [2] was ≥ 2 h and the Activity [3] was “Non-Toxic”. The Activity [4] was “Toxic”, the IC50 [5] was 670 nM and the EC50 [6] was 3.2 nM. For the same compound, the IC50 [7] was ≥ 24300 nM, the half-life [8] was > 2 h and the IC50 [9] was ≥ 24300 nM. The Papp [10] was 50.5 ×10⁻⁶ cm/s, the EC50 [11] was 3.5 nM and the bioavailability [12] was 89%. For the same compound, the CC50 at 96 h [13] was ≥ 33500 nM, the solubility [14] was < 1 µg/mL and the AUC [15] was 2.23 µM·h. The IC50 [16] was ≥ 24300 nM, the bioavailability [17] was 54% and the Tmax [18] was 2.7 h. For the same compound, the half-life [19] was 2.4 h, the Vd [20] was 0.8 L/kg and the EC50 [21] was 3.8 nM. For the same compound, the Activity [22] was “Toxic”, the half-life at 0.5 µM [23] was 1.42 h and the inhibition at 10 µM [24] was 96%. The half-life [25] was ≥ 2 h, the half-life [26] was 6.3 h and the Cmax [27] was 2760 nM. For the same compound, the Activity [28] was “Toxic”, the clearance [29] was 5.4 mL/min/kg and the half-life [30] was 4.3 h. For the same compound, the Tmax [31] was 5 h, the Activity [32] was “Toxic” and the fraction unbound [33] was 0.21. The bioavailability [34] was 52%, the half-life [35] was 0.983 h and the Vd [36] was 1.5 L/kg. For the same compound, the half-life [37] was > 2 h, the Activity [38] was “Toxic” and the Activity [39] was “Toxic”. The EC50 [40] was 2.8 nM, the half-life [41] was ≥ 2 h and the Papp [42] was 89.6 ×10⁻⁶ cm/s. The AUC [43] was 24.5 µM·h, the AUC [44] was 14 µM·h and the half-life [45] was 5.1 h. For the same compound, the Stability [46] was “Stable”, the Activity [47] was “Non-Toxic” and the Stability [48] was “Unstable”. For the same compound, the fraction unbound [49] was 0.19, the clearance [50] was 2.9 mL/min/kg and the Activity [51] was 6%. For the same compound, the half-life at 0.5 µM [52] was > 2 h and the Activity [53] was “Toxic”.

— ChEMBL document CHEMBL5046290, “Design, Synthesis, and Preclinical Profiling of GSK3739936 (BMS-986180), an Allosteric Inhibitor of HIV-1 Integrase with Broad-Spectrum Activity toward 124/125 Polymorphs” (J Med Chem, 2022)
